Experimental findings from ChEMBL document CHEMBL1201862, “PubChem BioAssay data set” (2004) are described below.

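Five concentrations, 48 hours, 96-well plates. GI50 marks 50% less growth.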 Calls of active or inactive are those of the source. No stated cut-off is given here; in the data, active = GI50 up to about 1.1 µM and inactive = higher. Where only a bound is given, the exact number is not on record here.

Test systems include 786-0; ACHN; CCRF-CEM; HOP-62; HT-29; IGROV-1; K562; M14; Malme-3M; NCI-H23; OVCAR-5; PC-3; RPMI-8226; SF-268; SF-295; SK-MEL-28; SN12C; UO-31; SF-539.
Common to all, as to assay: NCI tumour cell line growth inhibition, 48 h

For the compound `CCOC(=O)c1ccc(C(=O)/C(C#N)=C2\CCCN2)n1C`, the GI50 is > 100 µM (inactive) with 786-0; > 100 µM (inactive) in the assay with ACHN; > 100 µM (inactive) in the assay on CCRF-CEM; > 100 µM (inactive) in the assay on HOP-62; 79.4 µM (inactive) in the assay on HT-29; > 100 µM (inactive) in the assay on IGROV-1. In addition, the GI50 in the assay on K562 is 13.3 µM (inactive); in the assay with M14 it was > 100 µM (inactive); with Malme-3M, > 100 µM (inactive); in the assay on NCI-H23 it was 97.5 µM (inactive); in the assay on OVCAR-5, > 100 µM (inactive); in the assay with PC-3, > 100 µM (inactive). For the same compound, the GI50 was 0.703 µM (active) with RPMI-8226; > 100 µM (inactive) with SF-268; > 100 µM (inactive) in the assay with SF-295; > 100 µM (inactive) with SK-MEL-28; > 100 µM (inactive) in the assay with SN12C; > 100 µM (inactive) in the assay on UO-31.
`C=CC1CCC[N+]1(CC(=O)OCC)Cc1ccccc1` (stereo not drawn): the GI50 in the assay on 786-0, in the assay on ACHN, with CCRF-CEM, in the assay with HOP-62, in the assay on HT-29 and in the assay with IGROV-1 was > 100 µM (inactive) each time. The GI50 in the assay on K562, in the assay on M14, with Malme-3M, in the assay on NCI-H23, in the assay with OVCAR-5 and in the assay with PC-3 was > 100 µM (inactive) each time. In addition, the GI50 with RPMI-8226, in the assay with SF-268, with SF-295, with SK-MEL-28, with SN12C and in the assay with UO-31 was > 100 µM (inactive) throughout.
For `O=C1OC([C@H](O)c2cccnc2)c2ccccc21` (stereo partly drawn), the GI50 in the assay with 786-0, in the assay on ACHN, in the assay on CCRF-CEM, in the assay with HOP-62, in the assay with HT-29 and in the assay on IGROV-1 was > 10 µM (inactive) in each case. The GI50 with K562, with M14, in the assay with NCI-H23, in the assay with OVCAR-5, with PC-3 and with RPMI-8226 was > 10 µM (inactive) in each case. In addition, the GI50 with SF-268, in the assay on SF-295, in the assay with SF-539, in the assay on SK-MEL-28, in the assay with SN12C and in the assay with UO-31 was > 10 µM (inactive) throughout.
Regarding `Cc1ccc(C2SCC(=O)N2c2ccc(-c3ccc(-n4c(-c5ccccc5)nc5ccccc5c4=O)cc3)cc2)cc1` (stereo not drawn), the GI50 with 786-0 is 45.7 µM (inactive); in the assay on ACHN, > 100 µM (inactive); in the assay on CCRF-CEM, 34.9 µM (inactive); with HOP-62, > 100 µM (inactive); with HT-29, 38.9 µM (inactive); with IGROV-1, 25.3 µM (inactive). Moreover, the GI50 in the assay with K562 is 64.7 µM (inactive); in the assay with M14 it was 85.7 µM (inactive); in the assay on Malme-3M, > 100 µM (inactive); in the assay on NCI-H23, > 100 µM (inactive); in the assay on OVCAR-5, > 100 µM (inactive); in the assay on PC-3 it was 42.4 µM (inactive). For the same compound, the GI50 in the assay with RPMI-8226 was > 100 µM (inactive); in the assay on SF-268, 33.8 µM (inactive); in the assay on SF-295, > 100 µM (inactive); in the assay on SK-MEL-28, > 100 µM (inactive); in the assay on SN12C it was 86.5 µM (inactive); in the assay on UO-31, 18.6 µM (inactive).
`O=S(=O)(O)c1ccc(/N=N/c2ccc3c(S(=O)(=O)O)cccc3c2O)c2ccccc12`: the GI50 in the assay on 786-0, in the assay with ACHN, in the assay on HOP-62, with HT-29, with IGROV-1 and in the assay with M14 was > 100 µM (inactive) throughout. Further, the GI50 in the assay on Malme-3M, with NCI-H23, in the assay with OVCAR-5, in the assay with PC-3, with RPMI-8226 and in the assay on SF-268 was > 100 µM (inactive) each time. For the same compound, the GI50 in the assay on SF-295 is > 100 µM (inactive); with SK-MEL-28, > 100 µM (inactive); in the assay with SN12C, > 100 µM (inactive); with UO-31, 39.3 µM (inactive).
With `O=C(O)CCCn1nnc2c(=O)[nH][nH]c(=O)c21`, the GI50 in the assay on 786-0, in the assay on ACHN, with CCRF-CEM, in the assay with HOP-62, in the assay with HT-29 and with K562 was > 100 µM (inactive) in each case. Moreover, the GI50 in the assay with M14, in the assay with Malme-3M, in the assay on NCI-H23, in the assay with OVCAR-5, in the assay with PC-3 and with RPMI-8226 was > 100 µM (inactive) throughout. Besides, the GI50 in the assay with SF-295, in the assay on SK-MEL-28, in the assay on SN12C and in the assay with UO-31 was > 100 µM (inactive) throughout.
Consider `Cc1ccc(/N=C2\C(=O)C3=C(OC(C)(C)CC3)c3ccccc32)cc1`, for which the GI50 is 1.78 µM (inactive) in the assay on 786-0; 0.313 µM (active) with ACHN; 2.04 µM (inactive) in the assay with CCRF-CEM; 0.542 µM (active) in the assay on HOP-62; 0.247 µM (active) with HT-29; 0.703 µM (active) with IGROV-1. The GI50 was 0.197 µM (active) in the assay on K562; 0.459 µM (active) in the assay on M14; 0.352 µM (active) in the assay with Malme-3M; 1.08 µM (active) with NCI-H23; 1.51 µM (inactive) in the assay on OVCAR-5; 1.22 µM (inactive) with PC-3. The GI50 with RPMI-8226 was 0.232 µM (active); in the assay with SF-268, 1.53 µM (inactive); in the assay on SF-295, 1.4 µM (inactive); in the assay with SK-MEL-28 it was 1.21 µM (inactive); in the assay on SN12C, 0.505 µM (active); with UO-31, 0.652 µM (active).
Turning to `Nc1ccc2c(c1)NC(=O)[C@@H]1CCCN1C2=O`, the GI50 in the assay with 786-0, in the assay on ACHN, in the assay on CCRF-CEM, in the assay on HOP-62, in the assay on HT-29 and with IGROV-1 was > 100 µM (inactive) each time. Moreover, the GI50 in the assay on K562, with M14, in the assay on NCI-H23, with OVCAR-5, in the assay with PC-3 and with RPMI-8226 was > 100 µM (inactive) each time. The GI50 in the assay with SF-268, with SF-295, in the assay with SF-539, with SK-MEL-28, in the assay with SN12C and in the assay with UO-31 was > 100 µM (inactive) throughout.
In the case of `CC(C)c1cc(=O)[nH]c2cc(N)ccc12`, the GI50 in the assay with 786-0, in the assay on ACHN, in the assay with CCRF-CEM, with HOP-62, in the assay on HT-29 and in the assay on IGROV-1 was > 100 µM (inactive) each time. The GI50 with K562, in the assay with M14, in the assay with NCI-H23, in the assay on OVCAR-5, in the assay on PC-3 and in the assay with RPMI-8226 was > 100 µM (inactive) throughout. Further, the GI50 in the assay on SF-295, in the assay with SF-539, in the assay on SK-MEL-28, in the assay on SN12C and with UO-31 was > 100 µM (inactive) in each case.
As to `CCOC(=O)c1ccc2nc3n(c2c1)C(c1c(F)cccc1F)SC3` (stereo not drawn), the GI50 was 55.7 µM (inactive) in the assay on 786-0; 84.1 µM (inactive) in the assay on ACHN; > 100 µM (inactive) in the assay on CCRF-CEM; 57.3 µM (inactive) with HOP-62; > 100 µM (inactive) in the assay with HT-29; 86.7 µM (inactive) in the assay on IGROV-1. Moreover, the GI50 in the assay with K562 was > 100 µM (inactive); in the assay with M14, > 100 µM (inactive); in the assay with NCI-H23 it was 78.9 µM (inactive); in the assay with OVCAR-5 it was > 100 µM (inactive); in the assay with PC-3, 72.1 µM (inactive); in the assay on RPMI-8226, > 100 µM (inactive). Moreover, the GI50 in the assay on SF-268, in the assay with SF-295, in the assay with SF-539, with SK-MEL-28, in the assay with SN12C and in the assay on UO-31 was > 100 µM (inactive) throughout.
In the case of `COc1ccc(-c2nc3ncccn3c2-c2ccc(S(C)(=O)=O)cc2)cc1`, the GI50 is > 100 µM (inactive) in the assay on 786-0; > 100 µM (inactive) in the assay with ACHN; > 100 µM (inactive) with CCRF-CEM; > 100 µM (inactive) with HOP-62; > 100 µM (inactive) with HT-29; 53.8 µM (inactive) with IGROV-1. In addition, the GI50 was > 100 µM (inactive) in the assay on K562; > 100 µM (inactive) in the assay with M14; > 100 µM (inactive) in the assay with NCI-H23; > 100 µM (inactive) in the assay with OVCAR-5; > 100 µM (inactive) in the assay with PC-3; 41.7 µM (inactive) with RPMI-8226. Moreover, the GI50 is 35.2 µM (inactive) with SF-268; > 100 µM (inactive) in the assay with SF-295; > 100 µM (inactive) in the assay with SF-539; > 100 µM (inactive) with SK-MEL-28; > 100 µM (inactive) in the assay on SN12C; > 100 µM (inactive) with UO-31.
